The target of one assay is T1, human SGLT1 (Homo sapiens, UniProt P13866).
T1 construct: expressed in transfected cells
T1 sequence (P13866 1-664): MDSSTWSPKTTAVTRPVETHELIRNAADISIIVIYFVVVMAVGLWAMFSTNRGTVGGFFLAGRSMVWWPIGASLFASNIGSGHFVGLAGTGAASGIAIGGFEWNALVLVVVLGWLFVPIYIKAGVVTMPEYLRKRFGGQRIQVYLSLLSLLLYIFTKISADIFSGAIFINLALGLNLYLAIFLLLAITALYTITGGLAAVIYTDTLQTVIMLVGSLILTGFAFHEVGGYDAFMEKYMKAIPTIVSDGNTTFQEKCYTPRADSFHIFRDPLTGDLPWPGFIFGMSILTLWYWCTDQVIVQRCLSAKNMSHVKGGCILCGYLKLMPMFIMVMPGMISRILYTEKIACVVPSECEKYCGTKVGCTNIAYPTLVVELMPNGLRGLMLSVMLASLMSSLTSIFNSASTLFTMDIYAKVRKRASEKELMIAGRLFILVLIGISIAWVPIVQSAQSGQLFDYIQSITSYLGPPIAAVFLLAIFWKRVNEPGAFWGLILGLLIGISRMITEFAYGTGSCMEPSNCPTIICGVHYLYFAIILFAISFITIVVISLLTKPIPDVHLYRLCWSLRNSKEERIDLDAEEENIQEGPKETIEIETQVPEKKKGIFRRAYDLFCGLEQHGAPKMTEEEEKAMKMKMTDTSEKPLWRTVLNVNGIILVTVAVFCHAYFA
As to the kind of experiment: SGLT1 in vitro assay: Na-dependent 14C-AMG uptake in CHO-K1 cells stably expressing human SGLT1. To be noted: CHO-K1 cells stably expressing human SGLT1, 14C-AMG uptake; for inhibition at 0.3 µM: read-out: SGLT1 % Inh @ 0.3 μM; for IC50: compounds of formula (I) where R0 is fluoro. The format is cell-based. The method, boiled down: (§1)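 Sodium-dependent uptake of 14C-α-methyl-glucopyranoside ([…]) over 2 h at 37°C was counted by scintillation in stable human SGLT2- or SGLT1-CHO-K1 lines pretreated with 10 mM Na-butyrate. Compounds at 0.001–10 μM were preincubated for 10 min in pH 7.4 buffer with 137 mM NaCl; output is %-inhibition or IC50.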

In another assay the target is T2, human SGLT2 (Homo sapiens, UniProt P31639).
T2 construct: expressed in transfected cells
T2 sequence (P31639 1-672): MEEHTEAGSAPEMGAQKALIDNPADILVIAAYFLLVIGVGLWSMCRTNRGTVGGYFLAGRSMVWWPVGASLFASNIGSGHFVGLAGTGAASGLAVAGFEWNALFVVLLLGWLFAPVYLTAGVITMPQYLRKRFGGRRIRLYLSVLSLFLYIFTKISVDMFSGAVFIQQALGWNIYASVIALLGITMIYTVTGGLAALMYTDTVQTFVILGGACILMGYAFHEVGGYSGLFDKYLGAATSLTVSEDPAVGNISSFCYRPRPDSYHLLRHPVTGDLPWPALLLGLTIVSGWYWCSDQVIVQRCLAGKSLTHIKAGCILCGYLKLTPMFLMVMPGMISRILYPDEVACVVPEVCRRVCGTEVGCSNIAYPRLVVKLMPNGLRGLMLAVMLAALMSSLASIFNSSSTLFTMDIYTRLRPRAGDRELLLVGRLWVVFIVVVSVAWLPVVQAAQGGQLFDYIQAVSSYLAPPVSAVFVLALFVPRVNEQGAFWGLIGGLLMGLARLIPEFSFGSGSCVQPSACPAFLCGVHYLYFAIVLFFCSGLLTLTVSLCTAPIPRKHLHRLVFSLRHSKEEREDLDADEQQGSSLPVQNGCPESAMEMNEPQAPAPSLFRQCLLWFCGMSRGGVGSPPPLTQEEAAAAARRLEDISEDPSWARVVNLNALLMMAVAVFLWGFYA
Briefly: SGLT2 in vitro assay: Na-dependent 14C-AMG uptake in CHO-K1 cells stably expressing human SGLT2. Format: cell-based. The settings on record: CHO-K1 cells stably expressing human SGLT2, 14C-AMG uptake; for inhibition at 0.3 µM: read-out: SGLT2 % Inh @ 0.3 μM; for IC50: compounds of formula (I) where R0 is fluoro. In a few lines: as §1

We go through 24 compounds from patent US20210238170A1, “5,5-Difluoro- and 5-Fluoro-5-Methyl-C-Glycoside Derivatives Useful As Dual SGLT1 / SGLT2 Modulators” (Janssen Pharmaceutica NV, priority 2018, published 2021).

In general, IC50 refers to the concentration at which inhibition is half-maximal. Higher therefore signals weaker potency.

Consider `COc1cccc(Cc2cc([C@@H]3O[C@H](CO)C(F)(F)[C@H](O)[C@H]3O)c(O)cc2Cl)c1` [Compound 157], for which the inhibition at 0.3 µM on human SGLT1 was determined as 71.8%; at human SGLT2, 89.7%. Moreover, the results for the IC50 against human SGLT1 and against human SGLT2 were 0.112 µM and 0.0026 µM, respectively.

Consider `Cc1ccc(Cc2cc([C@@H]3O[C@H](CO)C(F)(F)[C@H](O)[C@H]3O)c(O)cc2Cl)s1` [Compound 161], for which, at human SGLT1, the inhibition at 0.3 µM amounted to 87.8% and inhibition was half-maximal at 0.035 µM (IC50). In addition, at human SGLT2, the inhibition at 0.3 µM worked out at 87.6% and the IC50 came to 0.0025 µM.

Consider `CCOc1ccc(Cc2cc([C@@H]3O[C@H](CO)C(F)(F)[C@H](O)[C@H]3O)c(O)cc2Cl)cc1` [Compound 162], for which, on human SGLT1, the inhibition at 0.3 µM turned out to be 56.5% and 0.127 µM corresponded to half-maximal inhibition (IC50). Besides, on human SGLT2, the inhibition at 0.3 µM was determined as 73% and the midpoint of inhibition, the IC50, lay at 0.0015 µM.

As to `OC[C@H]1O[C@@H](c2cc(Cc3ccc(Cl)cc3)c(Cl)cc2O)[C@H](O)[C@@H](O)C1(F)F` [Compound 163, (2S,3R,4R,6R)-2-(4-chloro-5-(4-chlorobenzyl)-2-hydroxyphenyl)-5,5-difluoro-6-(hydroxymethyl)-tetrahydro-2H-pyran-3,4-diol], at human SGLT1, the inhibition at 0.3 µM was determined as 73.1% and the IC50 is 0.025 µM. On human SGLT2, the inhibition at 0.3 µM is 64.4% and half-maximal inhibition (IC50) required 0.0012 µM.

As for `COc1cc(Cl)c(Cc2ccc(C)s2)cc1[C@@H]1O[C@H](CO)C(F)(F)[C@H](O)[C@H]1O` [Compound 165], at human SGLT1, the inhibition at 0.3 µM came out at 54.7% and half-maximal inhibition (IC50) required 0.04 µM. Further, at human SGLT2, the inhibition at 0.3 µM was 73.2% and the 50% inhibitory concentration (IC50) came out at 0.0007 µM.

As for `CCc1ccc(Cc2cc([C@@H]3O[C@H](CO)C(F)(F)[C@H](O)[C@H]3O)c(OC)cc2C#N)cc1` [Compound 166], on human SGLT1, the “SGLT1 % Inh @ 0.3 μM” value was 8.5%. Further, the “SGLT2 % Inh @ 0.3 μM” value on human SGLT2 stood at 74.9%.

Regarding `OC[C@H]1O[C@@H](c2cc(Cc3ccc(Cl)s3)c(Cl)cc2O)[C@H](O)[C@@H](O)C1(F)F` [Compound 167], the figures for the inhibition at 0.3 µM at human SGLT1 and on human SGLT2 were 75.7% and 83.4%, respectively. In addition, the IC50 against human SGLT1 turned out to be 0.02 µM; against human SGLT2, 0.0008 µM.

`COc1cc(Cl)c(Cc2ccc(Cl)cc2)cc1[C@@H]1O[C@H](CO)C(F)(F)[C@H](O)[C@H]1O` [Compound 168]: at human SGLT1, the inhibition at 0.3 µM is 43.2% and the IC50 is 0.175 µM. At human SGLT2, the inhibition at 0.3 µM was determined as 77.6% and inhibition was half-maximal at 0.0009 µM (IC50).

Turning to `COc1cc(C#N)c(Cc2ccc(C3CC3)cc2)cc1[C@@H]1O[C@H](CO)C(F)(F)[C@H](O)[C@H]1O` [Compound 169], the “SGLT1 % Inh @ 0.3 μM” value on human SGLT1 worked out at 12.1%. Also, on human SGLT2, the “SGLT2 % Inh @ 0.3 μM” value was determined as 78.9%.

As for `Cc1ccc(Cc2cc([C@@H]3O[C@H](CO)C(F)(F)[C@H](O)[C@H]3O)c(O)cc2Cl)cc1` [Compound 171, (2S,3R,4R,6R)-2-(4-chloro-2-hydroxy-5-(4-methylbenzyl)phenyl)-5,5-difluoro-6-(hydroxymethyl)-tetrahydro-2H-pyran-3,4-diol], the inhibition at 0.3 µM on human SGLT1 is 86.4%; on human SGLT2 it was 82.4%. For the same compound, the IC50 on human SGLT1 came to 0.012 µM; against human SGLT2 it was 0.0005 µM.

Regarding `COc1cc(Cl)c(Cc2ccc(Cl)s2)cc1[C@@H]1O[C@H](CO)C(F)(F)[C@H](O)[C@H]1O` [Compound 172], the “SGLT1 % Inh @ 0.3 μM” value at human SGLT1 came to 40.4%. Further, the “SGLT2 % Inh @ 0.3 μM” value on human SGLT2 stood at 79.9%.

For `N#Cc1cc(O)c([C@@H]2O[C@H](CO)C(F)(F)[C@H](O)[C@H]2O)cc1Cc1ccc(C2CC2)cc1` [Compound 173], the “SGLT1 % Inh @ 0.3 μM” value on human SGLT1 was determined as 17.3%. The “SGLT2 % Inh @ 0.3 μM” value on human SGLT2 came out at 83.3%.

As to `OC[C@H]1O[C@@H](c2cc3c(c(Cc4ccc(C5CC5)cc4)c2)OCC3)[C@H](O)[C@@H](O)C1(F)F` [Compound 174], the “SGLT1 % Inh @ 0.3 μM” value on human SGLT1 was 38.0%. For the same compound, at human SGLT2, the “SGLT2 % Inh @ 0.3 μM” value was 82.9%.

For the compound `CCc1ccc(Cc2cc([C@@H]3O[C@H](CO)C(F)(F)[C@H](O)[C@H]3O)c(O)cc2C#N)cc1` [Compound 175], at human SGLT1, the “SGLT1 % Inh @ 0.3 μM” value amounted to 24.3%. For the same compound, on human SGLT2, the “SGLT2 % Inh @ 0.3 μM” value is reported as 79.9%.

With `COc1cc(Cl)c(Cc2ccc(C)cc2)cc1[C@@H]1O[C@H](CO)C(F)(F)[C@H](O)[C@H]1O` [Compound 176], on human SGLT1, the inhibition at 0.3 µM came to 52% and the IC50 came out at 0.105 µM. Moreover, at human SGLT2, the inhibition at 0.3 µM was determined as 90.6% and it took 0.0017 µM to reach half-maximal inhibition (IC50).

For `Cc1ccc(Cc2cc([C@@H]3O[C@H](CO)C(F)(F)[C@H](O)[C@H]3O)c(O)cc2C)cc1F` [Compound 177], at human SGLT1, the inhibition at 0.3 µM was found to be 79.6% and it took 0.013 µM to reach half-maximal inhibition (IC50). Besides, at human SGLT2, the inhibition at 0.3 µM came to 87.8% and 0.0031 µM corresponded to half-maximal inhibition (IC50).

As to `CN(C)c1ccc(Cc2cc([C@@H]3O[C@H](CO)C(F)(F)[C@H](O)[C@H]3O)cc3c2OCC3)cc1` [Compound 179], the “SGLT1 % Inh @ 0.3 μM” value on human SGLT1 is listed as 24.9%. In addition, the “SGLT2 % Inh @ 0.3 μM” value on human SGLT2 is on record as 62.1%.

As for `CCc1csc(Cc2cc([C@@H]3O[C@H](CO)C(F)(F)[C@H](O)[C@H]3O)c(O)cc2C)c1` [Compound 182], on human SGLT1, the inhibition at 0.3 µM is 60.2% and the IC50 was determined as 0.04 µM. On human SGLT2, the inhibition at 0.3 µM amounted to 83.6% and half-maximal inhibition (IC50) required 0.0013 µM.

In the case of `COc1c([C@@H]2O[C@H](CO)C(F)(F)[C@H](O)[C@H]2O)cc(Cc2ccc(C3CC3)cc2)c2c1CCO2` [Compound 183], the “SGLT1 % Inh @ 0.3 μM” value on human SGLT1 was determined as 39.3%. Also, the “SGLT2 % Inh @ 0.3 μM” value at human SGLT2 amounted to 87.4%.

For `COc1c([C@@H]2O[C@H](CO)C(F)(F)[C@H](O)[C@H]2O)cc(Cc2ccc(OCF)cc2)c2c1CCO2` [Compound 184], on human SGLT1, the “SGLT1 % Inh @ 0.3 μM” value is given as 24.7%. In addition, the “SGLT2 % Inh @ 0.3 μM” value at human SGLT2 is on record as 73.2%.

With `COc1c([C@@H]2O[C@H](CO)C(F)(F)[C@H](O)[C@H]2O)cc(Cc2ccc(N(C)C)cc2)c2c1CCO2` [Compound 185], the “SGLT1 % Inh @ 0.3 μM” value on human SGLT1 was 25.4%. For the same compound, at human SGLT2, the “SGLT2 % Inh @ 0.3 μM” value amounted to 65.3%.

`OC[C@H]1O[C@@H](c2cc(Cc3ccc4c(c3)OCCO4)c3c(c2O)OCC3)[C@H](O)[C@@H](O)C1(F)F` [Compound 187]: at human SGLT1, the inhibition at 0.3 µM was determined as 52.7% and the midpoint of inhibition, the IC50, lay at 0.16 µM. Besides, at human SGLT2, the inhibition at 0.3 µM came out at 74.6% and the IC50 was 0.0359 µM.

With `OC[C@H]1O[C@@H](c2cc(Cc3ccc4c(c3)OCCO4)c(Cl)c3c2CCO3)[C@H](O)[C@@H](O)C1(F)F` [Compound 188], the “SGLT1 % Inh @ 0.3 μM” value at human SGLT1 turned out to be 21.6%. Also, the “SGLT2 % Inh @ 0.3 μM” value at human SGLT2 is listed as 60.1%.

Turning to `[2H]C([2H])(c1ccc2c(c1)OCCO2)c1cc([C@@H]2O[C@H](CO)C(F)(F)[C@H](O)[C@H]2O)ccc1CC` [Compound 192], the values for the inhibition at 0.3 µM on human SGLT1 and at human SGLT2 were 49.9% and 85.7%, respectively. For the same compound, the IC50 against human SGLT1 was determined as 0.779 µM; at human SGLT2, 0.108 µM.
